Experimental findings from ChEMBL document CHEMBL2074391, “Overlapping substrate specificities of cytochrome P450 3A and P-glycoprotein for a novel cysteine protease inhibitor” (Drug Metab Dispos, 1998) are described below.

Series [1] deals with T1, ABCB1 (P-glycoprotein) (Homo sapiens, UniProt P08183). Put plainly: TP_TRANSPORTER: inhibition of photolabeling by LU-49888 (LU-49888: 0.1 uM, K02: 10 uM) in membranes from CEM5k cells. As to conditions: probe LU-49888 (0.1 uM). The class given is functional, cell membranes, Membrane.
T1 sequence (P08183 whole entry): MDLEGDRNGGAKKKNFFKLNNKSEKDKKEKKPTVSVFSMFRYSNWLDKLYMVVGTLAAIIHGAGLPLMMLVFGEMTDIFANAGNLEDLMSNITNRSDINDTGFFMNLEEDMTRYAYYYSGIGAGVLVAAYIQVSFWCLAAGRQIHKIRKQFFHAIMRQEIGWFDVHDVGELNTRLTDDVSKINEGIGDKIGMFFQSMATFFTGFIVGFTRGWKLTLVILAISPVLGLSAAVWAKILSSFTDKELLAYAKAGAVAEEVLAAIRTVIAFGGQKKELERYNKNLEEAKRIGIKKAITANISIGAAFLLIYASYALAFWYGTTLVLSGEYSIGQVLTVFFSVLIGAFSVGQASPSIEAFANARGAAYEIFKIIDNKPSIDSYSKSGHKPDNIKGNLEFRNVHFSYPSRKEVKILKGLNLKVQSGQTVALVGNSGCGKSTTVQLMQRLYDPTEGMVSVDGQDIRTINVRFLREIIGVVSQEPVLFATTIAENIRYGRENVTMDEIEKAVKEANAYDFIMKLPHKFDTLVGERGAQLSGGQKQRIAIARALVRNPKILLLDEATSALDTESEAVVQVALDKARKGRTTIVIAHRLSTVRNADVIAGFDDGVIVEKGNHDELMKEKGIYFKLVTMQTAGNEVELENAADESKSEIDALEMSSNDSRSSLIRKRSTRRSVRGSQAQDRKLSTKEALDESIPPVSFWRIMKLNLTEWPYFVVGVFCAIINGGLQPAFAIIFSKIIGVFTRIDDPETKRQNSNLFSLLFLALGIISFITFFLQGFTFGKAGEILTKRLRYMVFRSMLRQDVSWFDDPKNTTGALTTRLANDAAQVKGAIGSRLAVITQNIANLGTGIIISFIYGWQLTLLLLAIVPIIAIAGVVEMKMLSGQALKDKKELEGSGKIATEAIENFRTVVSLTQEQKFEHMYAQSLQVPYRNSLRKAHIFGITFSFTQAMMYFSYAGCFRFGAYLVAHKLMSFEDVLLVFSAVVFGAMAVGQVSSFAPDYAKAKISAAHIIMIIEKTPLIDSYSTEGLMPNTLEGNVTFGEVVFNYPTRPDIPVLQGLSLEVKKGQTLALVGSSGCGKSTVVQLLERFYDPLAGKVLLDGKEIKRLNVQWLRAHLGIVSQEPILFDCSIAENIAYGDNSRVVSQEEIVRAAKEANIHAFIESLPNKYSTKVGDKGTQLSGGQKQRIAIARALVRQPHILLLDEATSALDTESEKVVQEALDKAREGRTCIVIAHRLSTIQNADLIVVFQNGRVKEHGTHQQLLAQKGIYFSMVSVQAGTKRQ
The target of series [2] is ATP-dependent translocase ABCB1 (Homo sapiens, UniProt P08183). The experiment in a line: TP_TRANSPORTER: transepithelial transport (basal to apical) in MDR1-expressing MDCK cells. The format is functional, cell-based. As to conditions: dog.
Chain of ATP-dependent translocase ABCB1 (P08183 whole entry): as above
Series [3] has as its target T1, ABCB1 (P-glycoprotein). Put plainly: TP_TRANSPORTER: inhibition of photolabeling by Azidopine (Azidopine: 0.05 uM, K02: 10 uM) in membranes from CEM5k cells. The format is functional, cell membranes, Membrane. As to conditions: probe Azidopine (0.05 uM).

What is called inhibition is the change of the read-out against control, counted positive when it falls. The low end stands for a response near the control, the high end for a response far below the control. As to `O=C(N[C@H](/C=C/S(=O)(=O)c1ccccc1)CCc1ccccc1)[C@H](Cc1ccccc1)NC(=O)N1CCOCC1`, the inhibition at 10 µM at ABCB1 (P-glycoprotein) [1] turned out to be 80%; against ABCB1 (P-glycoprotein) [3] it was 74%. Also, the Activity entry in series [2] was “substrate [+]”.
